Data from patent US6277383A, “Ryegrass pollen allergen” (University of Melbourne, priority 1995, dated 2001).
Each block holds one sequence with its values, some of them ahead of it.

Assays:
[1] = system: IgE from sera of allergic indivs.; experiment: Screening of lambda-gt 11 cDNA clones for IgE binding; parameters: species or system human; key: ++: strongest binding; -: no binding; details: protein expressed by lambda-gt 11 clone, plaque lift
Method: (§1) Poly (A+) mRNA isolated from mature rye grass pollen by the phenol method ([…] and Michaels, (1984) Plant Mol. Biol. Rep., 2:24-28) was used to construct a cDNA library in the vector lambda-gt 11. The library was then screened with antibody probes to detect sequences expressing Group I proteins. E. coli […] transfected with 3×10^4 recombinant phages were plated and incubated at 42° C. for 3 h. The plates were overlaid with a dry 132 mm nitrocellulose (NC) filter previously soaked in 10 mm IPTG and transferred to 37° C. After incubation for 3 h the filters were carefully peeled off and incubated in 20 ml per filter of MTBS (10% w/v non-fat milk powder, 50 mm Tris-HCI, pH 7.6, 150 mM Nacl) for 30 min. at room temperature. A second set of NC filters was placed on phage plates and after incubating for 3 h were treated as above. Both sets of NC filters were tested for binding of MAb 40.1 to plaques by the method described in Huynh et al. (1985) In: DNA Cloning, a practical approach, Glover, D. M. (ed.) Vol. 1, pp. 49-78, IRL Press, Oxford, England. The antibody positive plaques were picked, purified, then replated and tested for binding to probes. The positive clones were plaque-purified and tested for IgE binding using sera from grass pollen-allergic subjects. Eighteen clones were selected as encoding proteins recognized by both Lol p I-specific MAbs and IgE antibodies (Table 1). The largest of the cDNA clones, 1.2kb in size, that expressed rye-grass allergenic protein was initially selected for further characterization and sequencing, and designated clone lambda-12R (FIG. 1a).

[2] = system: IgE affinity purified from recombinant allergens and IgE from whole serum of allergic individuals; experiment: Two-dimensional Western blot: IgE binding to allergens; parameters: species or system human; details: IgE preparations that bind: AP12R, AP13R, AP19R = affinity purified from recombinant Lol p Ib.1 fragment IH, Lol p Ia clone 13R, Lol p Ib.2; TIgE = whole serum
Excerpt: Serum used in the experiment to identify allergen regions of Lol p Ia and Lol p Ib was collected by Dr. R. Phomley at the Epworth Hospital (Richmond, Australia) from patients with a history of allergy to ryegrass pollen and a positive skin test to ryegrass pollen extract. IgE was affinity-purified from recombinant allergens as previously described (Singh, et al., (1991) Proc. Nat'l Acad. Sci. USA, […]; Example 2) except recombinant proteins were derived from lambda-gt11 culture rather than pGEX cultures.
(§2) Two dimensional (2D)-PAGE was performed in a mini-Protean II 2-D cell (Biorad, Richmond, Calif.) according to the manufacturer instructions. The proteins were diluted 1:1 in 4% CHAPS. […] The first dimension gel was run for 3.5 hours. The econd dimension gel was run for 45 minutes. Proteins on 2D-PAGE gels were silver stained to reveal the protein profile.
Conditions for electrophoresis and Western blotting and for the processing of Western blots with MAbs and IgE were as described by Singh, et al., (1985) Int. Arch. Allergy Appl. Immun., 78:300.

[3] = Two dimensional gel electrophoresis of ryegrass pollen proteins (pI); type: physicochemical, Lolium perenne; details: allergen spot on two dimensional gel
Method: as §2

MAb 40.1 = experiment: Antibody screening of lambda-gt 11 cDNA clones: binding of MAb 40.1; parameters: key: ++: strongest binding; -: no binding; details: protein expressed by lambda-gt 11 clone in E. coli Y1090, plaque lift
Method: as §1

[4] = system: human IgE of individual sera; experiment: Peptide dot blot immunoassay: human IgE; type: binding; details: for IgE Binding (symbol): sera diluted 1:4
Method: (§3) The peptides were dissolved in water to give a 1.6 mM stock solution. Insoluble peptides were dissolved by sonication (Branson Sonifier 450, USA) for 1 minute.
(§4) The peptides were immobilized onto nitrocellulose (NC) filter by using a modified method published elsewhere (Sithigonglu (1991) J. Immunol. Methods, 141:23-32). Two μl of the peptide stock solutions were spotted on the NC filter (Schleicher & Schuell, W. Germany) about 1 cm apart. After the strips were dried and baked at 80° C. for one hour, they were fixed by exposure, in a tightly sealed plastic box, to vapor from 0.2% glutaraldehyde in PBS at room temperature (18° C.) for one hour. After washing thoroughly with distilled water, the NC filters were blocked with Blotto (10% non-fat dry milk in PBS) for two hours and washed in 1×Tween-PBS (0.1% Tween-20 in PBS) and 2×PBS, five minutes each.
(§5) The peptides were then screened for human IgE and mouse/rabbit IgG epitopes with individual sera (diluted 1:4 in PBS with 0.5% BSA), MAbs FMC A7 (Smart et al. (1983) Int. Arch. Allergy Clin. Immunol. 72: 243) and polyclonal rabbit anti-Lol p Ib antibody. The rabbit anti-sera was a gift from Dr. Jenny Roland, Alfred Hospital, Melbourne, Australia.
(§6) The intensity of each dot blot was measured by densitometer (Pharmacia LKB UltraScan XL, Sweden). Densitometric values greater than two were considered as positive binding in comparison to the background. For every peptide, the sera and antibody values have been added (score/peptide) and divided by the number of positive sera to express the final value as an average (score/sera). Sera C1 and C2 were not grass allergic and were used as negative controls. C refers to crude ryegrass pollen extract (1 μg/dot) as positive control.

[5] = system: Mab FMC-A7 and rabbit polyclonal anti-Lol p Ib antiserum; experiment: Peptide dot blot immunoassay: mouse/rabbit IgG; type: binding
Method: as §3, §4, §5, §6

MAb 12.3 = experiment: Antibody screening of lambda-gt 11 cDNA clones: binding of MAb 12.3; parameters: key to Binding of MAb 12.3: ++: strongest binding; -: no binding; details: protein expressed by lambda-gt 11 clone in E. coli Y1090, plaque lift
Method: as §1

Binding of MAb 40.1 (MAb 40.1): ++
Sequence: AAATPATPAATPA [Peptide 2]
Binding of IgE from sera of allergic indivs. [1]: -
IgE binding [2]: AP13R TIgE
pI [3]: 5.9

Binding of MAb 40.1 (MAb 40.1): ++
Sequence: AAEGATPEAKYD [Peptide 13]
IgE binding [2]: TIgE
pI [3]: 7
IgE Binding (symbol) [4]: + (Densitometric values greater than two were considered as positive binding)

Binding of MAb 40.1 (MAb 40.1): ++
Sequence: AANAPPADKFKI [Peptide 7]
Mouse/rabbit IgG-reactivity (in words) [5]: highest mouse/rabbit IgG-reactivity
Binding of IgE from sera of allergic indivs. [1]: -
IgE binding [2]: AP12R,AP19R and TIgE
pI [3]: 6
Human IgE-reactivity (in words) [4]: highest human IgE-reactivity
IgE Binding (symbol) [4]: + (Densitometric values greater than two were considered as positive binding)

Binding of MAb 12.3 (MAb 12.3): -
Binding of MAb 40.1 (MAb 40.1): -
Sequence: ADAGYTPAAAAT [Peptide 1]
Mouse/rabbit IgG-reactivity (in words) [5]: highest mouse/rabbit IgG-reactivity
Binding of IgE from sera of allergic indivs. [1]: -
IgE binding [2]: AP13R TIgE
pI [3]: 5.5

Binding of MAb 12.3 (MAb 12.3): ++
Binding of MAb 40.1 (MAb 40.1): ++
Sequence: AKYDAFVTALTE [Peptide 14]
Binding of IgE from sera of allergic indivs. [1]: ++
IgE binding [2]: TIgE
pI [3]: 7.3

Binding of MAb 12.3 (MAb 12.3): -
Binding of MAb 40.1 (MAb 40.1): -
Sequence: ALTEGLRVIAGA [Peptide 15]
Binding of IgE from sera of allergic indivs. [1]: -
IgE binding [2]: TIgE
pI [3]: 9

Binding of MAb 40.1 (MAb 40.1): ++
Sequence: AVKPATEEVPAA [Peptide 17]
Binding of IgE from sera of allergic indivs. [1]: -
IgE binding [2]: TIgE
pI [3]: < 5.65

Binding of MAb 12.3 (MAb 12.3): -
Binding of MAb 40.1 (MAb 40.1): -
Sequence: FSESSKGLLATS [Peptide 9]
Binding of IgE from sera of allergic indivs. [1]: -
IgE binding [2]: AP12R,AP19R and TIgE
pI [3]: 7.2

Binding of MAb 40.1 (MAb 40.1): ++
Sequence: GFKAAVAAAANA [Peptide 6]
Binding of IgE from sera of allergic indivs. [1]: -
IgE binding [2]: AP12R,AP19R and TIgE
pI [3]: 6.45
IgE Binding (symbol) [4]: + (Densitometric values greater than two were considered as positive binding)

Binding of MAb 40.1 (MAb 40.1): ++
Sequence: GKATTDEQKLLE [Peptide 4]
Binding of IgE from sera of allergic indivs. [1]: -
IgE binding [2]: AP13R TIgE
pI [3]: 7

Binding of MAb 40.1 (MAb 40.1): ++
Sequence: IAGALEVHAVKPA [Peptide 16]
Binding of IgE from sera of allergic indivs. [1]: -
IgE binding [2]: TIgE
pI [3]: < 5.65
Human IgE-reactivity (in words) [4]: highest human IgE-reactivity
IgE Binding (symbol) [4]: + (Densitometric values greater than two were considered as positive binding)

Binding of MAb 12.3 (MAb 12.3): -
Binding of MAb 40.1 (MAb 40.1): -
Sequence: KFKIFEAAFSES [Peptide 8]
Binding of IgE from sera of allergic indivs. [1]: -
IgE binding [2]: AP12R,AP19R and TIgE
pI [3]: 6.45

Binding of MAb 40.1 (MAb 40.1): ++
Sequence: KLLEDVNAGFKA [Peptide 5]
Binding of IgE from sera of allergic indivs. [1]: -
IgE binding [2]: AP12R,AP19R and TIgE
pI [3]: 6
IgE Binding (symbol) [4]: + (Densitometric values greater than two were considered as positive binding)

Binding of MAb 12.3 (MAb 12.3): -
Binding of MAb 40.1 (MAb 40.1): -
Sequence: LATSAAKAPGLI [Peptide 10]
Binding of IgE from sera of allergic indivs. [1]: -
IgE binding [2]: AP12R,AP19R and TIgE
pI [3]: 8.3
IgE Binding (symbol) [4]: + (Densitometric values greater than two were considered as positive binding)

Binding of MAb 12.3 (MAb 12.3): ++
Binding of MAb 40.1 (MAb 40.1): ++
Sequence: TAYDVAYKAAEG [Peptide 12]
Binding of IgE from sera of allergic indivs. [1]: ++
IgE binding [2]: AP12R,AP19R and TIgE
pI [3]: 8.0

Binding of MAb 12.3 (MAb 12.3): ++
Binding of MAb 40.1 (MAb 40.1): ++
Sequence: VPAAKIPTGELQI [Peptide 18]
Binding of IgE from sera of allergic indivs. [1]: ++
IgE Binding (symbol) [4]: + (Densitometric values greater than two were considered as positive binding)

The remaining lines, values behind:

Sequence: AALTKAITAMTQA [Peptide 29]
IgE Binding (symbol) [4]: + (Densitometric values greater than two were considered as positive binding)

Sequence: AATPAAAGGKAT [Peptide 3]
Binding of IgE from sera of allergic indivs. [1]: -
IgE binding [2]: AP13R TIgE
pI [3]: 6.45
Binding of MAb 40.1 (MAb 40.1): ++

Sequence: AMTQAQKAGKPA [Peptide 30]
Human IgE-reactivity (in words) [4]: highest human IgE-reactivity
IgE Binding (symbol) [4]: + (Densitometric values greater than two were considered as positive binding)

Sequence: ATAANAAPTNDK [Peptide 21]
Human IgE-reactivity (in words) [4]: highest human IgE-reactivity
IgE Binding (symbol) [4]: + (Densitometric values greater than two were considered as positive binding)

Sequence: ESAFNKALNECT [Peptide 23]
Mouse/rabbit IgG-reactivity (in words) [5]: highest mouse/rabbit IgG-reactivity
Human IgE-reactivity (in words) [4]: highest human IgE-reactivity
IgE Binding (symbol) [4]: + (Densitometric values greater than two were considered as positive binding)

Sequence: ETYKFIPSLEAA [Peptide 25]
IgE Binding (symbol) [4]: + (Densitometric values greater than two were considered as positive binding)

Sequence: EVKYAVFEAALT [Peptide 28]
Mouse/rabbit IgG-reactivity (in words) [5]: highest mouse/rabbit IgG-reactivity

Sequence: GAATAAAGGYKA [Peptide 34]
Human IgE-reactivity (in words) [4]: highest human IgE-reactivity
IgE Binding (symbol) [4]: + (Densitometric values greater than two were considered as positive binding)

Sequence: GELQIVDKIDAA [Peptide 19]
Mouse/rabbit IgG-reactivity (in words) [5]: highest mouse/rabbit IgG-reactivity
Human IgE-reactivity (in words) [4]: highest human IgE-reactivity
IgE Binding (symbol) [4]: + (Densitometric values greater than two were considered as positive binding)

Sequence: NECTGGAYETYK [Peptide 24]
Mouse/rabbit IgG-reactivity (in words) [5]: highest mouse/rabbit IgG-reactivity
IgE Binding (symbol) [4]: + (Densitometric values greater than two were considered as positive binding)

Sequence: PGLIPKLNTAYD [Peptide 11]
Binding of IgE from sera of allergic indivs. [1]: -
IgE binding [2]: AP12R,AP19R and TIgE
pI [3]: 10.6
Binding of MAb 40.1 (MAb 40.1): ++

Sequence: YAATVAAPEVKY [Peptide 27]
IgE Binding (symbol) [4]: + (Densitometric values greater than two were considered as positive binding)
